Data published in ChEMBL document CHEMBL1201862, “PubChem BioAssay data set” (2004).
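Where inhibition never reached the appropriate level, the endpoint shown equals the highest concentration tested. Otherwise, values were interpolated linearly from a five-concentration, 48-hour dose response in 96-well plates. At the GI50, growth is halved.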 The source made the active and inactive calls. No stated cut-off is given here; in the data, active = GI50 up to about 1.1 µM and inactive = higher.

What was measured:
Experiment in all cases: inhibition of tumour cell growth, NCI panel, 48 h
SN12C = test system: SN12C
UO-31 = test system: UO-31
NCI-H23 = test system: NCI-H23
CAKI-1 = test system: CAKI-1
HT-29 = test system: HT-29
SNB-19 = test system: SNB-19
SK-MEL-28 = test system: SK-MEL-28
UACC-62 = test system: UACC-62
SW-620 = test system: SW-620
OVCAR-5 = test system: OVCAR-5
SR = test system: SR
RXF 393 = test system: RXF 393
M19-MEL = test system: M19-MEL
IGROV-1 = test system: IGROV-1
SK-MEL-5 = test system: SK-MEL-5
DMS-114 = test system: DMS-114
OVCAR-4 = test system: OVCAR-4
DLD-1 = test system: DLD-1
SK-OV-3 = test system: SK-OV-3
MOLT-4 = test system: MOLT-4
OVCAR-8 = test system: OVCAR-8
XF498 = test system: XF498
LXFL 529 = test system: LXFL 529
OVCAR-3 = test system: OVCAR-3
SF-295 = test system: SF-295
CCRF-CEM = test system: CCRF-CEM
K562 = test system: K562
M14 = test system: M14
KM-20L2 = test system: KM-20L2
SK-MEL-2 = test system: SK-MEL-2
COLO 205 = test system: COLO 205
HCC 2998 = test system: HCC 2998
TK-10 = test system: TK-10
NCI-H522 = test system: NCI-H522
KM12 = test system: KM12
SNB-78 = test system: SNB-78
Malme-3M = test system: Malme-3M
HCT-15 = test system: HCT-15
HOP-92 = test system: HOP-92
U-251 = test system: U-251
RPMI-8226 = test system: RPMI-8226
A498 = test system: A498
HOP-62 = test system: HOP-62
HOP-18 = test system: HOP-18
NCI-H226 = test system: NCI-H226
HL-60 = test system: HL-60
EKVX = test system: EKVX
786-0 = test system: 786-0
ACHN = test system: ACHN
SNB-75 = test system: SNB-75
NCI-H460 = test system: NCI-H460
SF-539 = test system: SF-539
DMS-273 = test system: DMS-273
A549 = test system: A549
HCT-116 = test system: HCT-116
SF-268 = test system: SF-268
UACC-257 = test system: UACC-257
LOX IMVI = test system: LOX IMVI

`COc1cc(/C=C(\NC(=O)c2ccccc2)c2nc3cc([N+](=O)[O-])ccc3[nH]2)cc(OC)c1OC` was tested, and the GI50 (SN12C) was > 100 µM (inactive), the GI50 (UO-31) was 23.1 µM (inactive) and the GI50 (NCI-H23) was > 100 µM (inactive). The GI50 (CAKI-1) was 68.5 µM (inactive), the GI50 (HT-29) was > 100 µM (inactive) and the GI50 (SNB-19) was > 100 µM (inactive). For the same compound, the GI50 (SK-MEL-28) was > 100 µM (inactive), the GI50 (UACC-62) was > 100 µM (inactive) and the GI50 (SW-620) was 76.7 µM (inactive). For the same compound, the GI50 (OVCAR-5) was > 100 µM (inactive), the GI50 (SR) was 42.2 µM (inactive) and the GI50 (RXF 393) was > 100 µM (inactive). The GI50 (M19-MEL) was > 100 µM (inactive), the GI50 (IGROV-1) was > 100 µM (inactive) and the GI50 (SK-MEL-5) was 96.6 µM (inactive). For the same compound, the GI50 (DMS-114) was 57.9 µM (inactive), the GI50 (OVCAR-4) was 38.5 µM (inactive) and the GI50 (DLD-1) was 57.3 µM (inactive). The GI50 (SK-OV-3) was 78.3 µM (inactive), the GI50 (MOLT-4) was 29 µM (inactive) and the GI50 (OVCAR-8) was 96.4 µM (inactive). For the same compound, the GI50 (XF498) was > 100 µM (inactive), the GI50 (LXFL 529) was 35.4 µM (inactive) and the GI50 (OVCAR-3) was > 100 µM (inactive). For the same compound, the GI50 (SF-295) was > 100 µM (inactive), the GI50 (CCRF-CEM) was 35.9 µM (inactive) and the GI50 (K562) was 34.3 µM (inactive). The GI50 (M14) was > 100 µM (inactive), the GI50 (KM-20L2) was 78.7 µM (inactive) and the GI50 (SK-MEL-2) was > 100 µM (inactive). The GI50 (COLO 205) was > 100 µM (inactive), the GI50 (HCC 2998) was > 100 µM (inactive) and the GI50 (TK-10) was > 100 µM (inactive). For the same compound, the GI50 (NCI-H522) was 30.2 µM (inactive), the GI50 (KM12) was 84.5 µM (inactive) and the GI50 (SNB-78) was > 100 µM (inactive). The GI50 (Malme-3M) was > 100 µM (inactive), the GI50 (HCT-15) was 40 µM and the GI50 (HOP-92) was 57 µM (inactive). For the same compound, the GI50 (U-251) was > 100 µM (inactive).

For `CC(C)CCCC(C)[C@H]1CCC2[C@@H]3CCC4Nc5nocc5C[C@]4(C)C3CC[C@@]21C` (stereo partly drawn), the GI50 (SN12C) was 18.1 µM (inactive), the GI50 (UO-31) was 14.6 µM (inactive) and the GI50 (RPMI-8226) was 20.3 µM (inactive). For the same compound, the GI50 (NCI-H23) was 14.6 µM (inactive), the GI50 (CAKI-1) was 14.4 µM (inactive) and the GI50 (HT-29) was 18.5 µM (inactive). For the same compound, the GI50 (SNB-19) was 21.2 µM (inactive), the GI50 (UACC-62) was 22.5 µM (inactive) and the GI50 (A498) was 21.6 µM (inactive). The GI50 (HOP-62) was 47.1 µM (inactive), the GI50 (SW-620) was 15.1 µM (inactive) and the GI50 (OVCAR-5) was > 10 µM (inactive). The GI50 (RXF 393) was 14.8 µM (inactive), the GI50 (M19-MEL) was 16.9 µM (inactive) and the GI50 (HOP-18) was 13.6 µM (inactive). For the same compound, the GI50 (IGROV-1) was 25.6 µM (inactive), the GI50 (SK-MEL-5) was 14.6 µM (inactive) and the GI50 (NCI-H226) was 19.9 µM (inactive). The GI50 (HL-60) was 9.02 µM (inactive), the GI50 (EKVX) was 16.1 µM (inactive) and the GI50 (OVCAR-4) was 19.4 µM (inactive). For the same compound, the GI50 (DLD-1) was 19.7 µM (inactive), the GI50 (786-0) was 11.4 µM (inactive) and the GI50 (ACHN) was 14.7 µM (inactive). For the same compound, the GI50 (SNB-75) was 15.6 µM (inactive), the GI50 (SK-OV-3) was 19.4 µM (inactive) and the GI50 (MOLT-4) was 18.2 µM (inactive). For the same compound, the GI50 (OVCAR-8) was 12.6 µM (inactive), the GI50 (LXFL 529) was 11.8 µM (inactive) and the GI50 (OVCAR-3) was 5.61 µM (inactive). The GI50 (NCI-H460) was 20 µM (inactive), the GI50 (SF-539) was 18.9 µM (inactive) and the GI50 (DMS-273) was 19.2 µM (inactive). The GI50 (SF-295) was 19.3 µM (inactive), the GI50 (CCRF-CEM) was 7.23 µM (inactive) and the GI50 (K562) was 15.8 µM (inactive). The GI50 (A549) was 21.2 µM (inactive), the GI50 (M14) was 16.3 µM (inactive) and the GI50 (KM-20L2) was 21.2 µM (inactive). The GI50 (SK-MEL-2) was 20.7 µM (inactive), the GI50 (COLO 205) was 6.14 µM (inactive) and the GI50 (HCC 2998) was 15.5 µM (inactive). For the same compound, the GI50 (TK-10) was 8.07 µM (inactive), the GI50 (NCI-H522) was 3.15 µM (inactive) and the GI50 (KM12) was 19.9 µM (inactive). For the same compound, the GI50 (HCT-116) was 18.4 µM (inactive), the GI50 (SF-268) was 17.2 µM (inactive) and the GI50 (SNB-78) was 19.3 µM (inactive). The GI50 (Malme-3M) was 15.5 µM (inactive), the GI50 (HCT-15) was 14.6 µM and the GI50 (U-251) was 15.7 µM (inactive). The GI50 (UACC-257) was 19.7 µM (inactive) and the GI50 (LOX IMVI) was 2.23 µM (inactive).
